Data on two compounds can be found in patent publication US20240165241A1, “TARGETED DELIVERY OF DRUG MOLECULES WITH DRUG LIGANDS CONJUGATED TO RNA NANOPARTICLE MOTION ELEMENTS” (Ohio State Innovation Foundation, priority 2022, published 2024).

A short description of series [1]: Water solubility of SN38 after conjugation to RNA (absorbance at 366 nm). As to conditions: absorbance at 366 nm versus concentration 12.5-800 μM. Type of series: physicochemical. The protocol:
Three solutions were prepared, RNA-SN38 in DEPC H2O, SN38 in DEPC H2O, and SN38 in DMSO. The absorbance at 366 nm of these three solutions with different concentrations (12.5-800 μM) were measured by NanoDrop 2000 Spectrophotometer (ThermoFisher). […] The picture of RNA-SN38 and SN38 in DEPC H2O at 800 μM were taken for comparison of clarity and turbidity.

The test system of the next series is KB cells. The series is described as follows: PI/Annexin V-FITC apoptosis assay. The class given is cell-based. The following applies: 500 nM, 24 hr. How it is done:
Cell apoptosis effect induced by RNA nanoparticles was evaluated using FITC Annexin V Apoptosis Detection Kit (BD Pharmingen) following manufacturer instructions. Briefly, 5×10^4 KB cells were seeded on a 24-well plate overnight. RNA nanoparticles and free MTX were added into 24-well plate at a final concentration of 500 nM. After a 24 hr incubation at 37° C. in a humidified 5% CO2 environment, cells were trypsinized to single cell suspension, washed with PBS buffer twice, and resuspended in 100 μL 1× Annexin V-FITC binding buffer. Following this 5 μL of Annexin V-FITC and 5 μL of PI were added into each sample and incubated at room temperature for 15 min. The samples were then transferred into flow tubes that contained 200 μL of 1× binding buffer for FACS analysis by FACS Calibur™ flow cytometer within 1 hr. Data were analyzed by FlowJo.

Consider `CCc1c2c(nc3ccc(O)cc13)-c1cc3c(c(=O)n1C2)COC(=O)[C@]3(O)CC` [SN38, 7-Ethyl-10-hydroxycamptothecin], for which, in series [1], the solubility in water result is reported as “poor water solubility”. In turn, `CN(Cc1cnc2nc(N)nc(N)c2n1)c1ccc(C(=O)N[C@@H](CCC(=O)O)C(=O)O)cc1` [MTX, Methotrexate] gave a cells underwent apoptosis in the series with KB cells of 69.4%.
